In assay [1] the test system is KCa2.3 channel. Briefly: KCa2.3 channel expression in vascular endothelial cells (real-time PCR, western blotting). The assay is classed as cell-based, human. The protocol:
(§1) Fibroblasts (CRL-2795; American Type Culture Collection, VA) were cultured in a Dulbecco's Modified Eagle Medium (Hyclone, Logan, Utah), human uterine microvascular endothelial cells (PromoCell GmbH, Heidelberg, Germany) were cultured in an MV2 medium (PromoCell GmbH), and human hepatic stellate cells (Innoprot, Bizkia, Spain) were cultured in a P60126 medium (Innoprot).
(§2) All cells were maintained under a 5% humidified carbon dioxide condition at 37° C. The cultured cells were exposed to each of PDGF, TGFβ, and the compounds of Formulas A1 to A9 (CBM-N1 N9) for 24 hours, followed by performing experiments.
The mRNA expression levels of inflammation or fibrosis factors in extracted liver tissue were measured by real-time PCR. RNA of the liver tissue was isolated with a TRIzol reagent (Molecular Research Center, Cincinnati, Ohio), and single-stranded cDNA was synthesized using BcaBEST polymerase (TakaraShuzo), followed by a polymerase chain reaction.
Cells were lysed with a protein extraction buffer solution, a protein concentration in a supernatant was determined by Bradford analysis, and […] of the protein was loaded on an SDS-PAGE gel and then transferred to a nitrocellulose membrane. The nitrocellulose membrane was blocked with 5% BSA-containing TEST (10 mM Tris-HCl, 150 mM NaCl, and 0.1% (v/v) Tween-20, pH 7.6) at room temperature for 1 hour. […]

The test system of assay [2] is western diet-induced liver disease mouse models. Briefly: Western diet-induced liver disease mouse model. The settings on record: western diet mice. Type of assay: in vivo. The protocol:
(§3) To confirm the effects of the compounds of Formula A1 to A5 (CBM-N1˜N5) according to the present invention on liver inflammation and fibrosis, subsequent experiments were performed on […] wild-type mouse (purchased from Orient Bio). First, to induce liver disease in mice, thioacetamide (TAA) were administered to the mice (Experiment A), or the mice were raised on a western diet inducing fatty liver disease (Experiment B). The mice were divided into a normal control, a disease-induced group, and a drug-administered group, and among these three groups, […] were used in each group for Experiment A, and 10 mice were used in each group for Experiment B. A drug treatment method for the mice in each group is as follows:
(§4) (1) Normal control: The normal control in Experiment A was intraperitoneally injected three times a week with the same amount of TAA solvent used when TAA was injected into a disease-induced group, and the normal control in Experiment B was raised on a normal diet. In both of the Experiments A and B, a CM/1-N1 solvent was injected using an oral tube at the same amount as that of CBM-N1 injection five times a week. The TAA solvent was distilled water, the CBM-N1 solvent and a derivative thereof were a 1:1 mixture of DMSO and distilled water. In the accompanying drawings, C or Control refers to a normal control.
(2) Disease-induced group: The disease-induced group in the Experiment A was intraperitoneally injected with TAA at 100 mg/kg three times a week, the disease-induced group in the Experiment B was raised on a western diet (WD, 45% saturated fat, […], and water containing fructose and glucose). […]
Aspartic acid aminotransferase (AST, GOT) and alanine aminotransferase (ALT, GPT), total bilirubin and albumin concentrations were measured using blood collected from liver disease mouse models.
The mRNA expression levels of inflammation or fibrosis factors in extracted liver tissue were measured by real-time PCR. […]

Assay [3] has as its system fibrosis markers (α-SMA, collagen 1α, collagen 3α) in fibroblasts. Put plainly: Expression of fibrosis markers in fibroblasts exposed to TGFβ (western blotting). Type of assay: cell-based. The conditions noted are these: fibroblasts exposed to TGFβ (5 ng/ml) + compound for 24 hours. The protocol: as §1, §2
(§5) Cells were lysed with a protein extraction buffer solution, a protein concentration in a supernatant was determined by Bradford analysis, and […] of the protein was loaded on an SDS-PAGE gel and then transferred to a nitrocellulose membrane. The nitrocellulose membrane was blocked with 5% BSA-containing TEST (10 mM Tris-HCl, 150 mM NaCl, and 0.1% (v/v) Tween-20, pH 7.6) at room temperature for 1 hour. Blots were incubated overnight with primary antibodies, and then incubated with horseradish peroxidase-conjugated secondary antibodies for 1 hour. Bands were visualized by chemiluminescence. Data collection and processing were performed using an image analyzer (LAS-3000) and IMAGE GAUSE software (Fuji film, Japan).

Assay [4] concerns KCa2.3 channel. Put plainly: KCa2.3 channel protein expression in fibroblasts (western blotting). The assay is classed as cell-based. The protocol:
as §1, §2, §5

Assay [5] has as its system TAA-induced liver disease mouse models. Briefly: TAA-induced liver disease mouse model. The assay is classed as in vivo. The conditions noted are these: TAA mice; for ALT levels / AST blood levels: blood, mean±S.E.M. The protocol:
as §3, §4
(2) Disease-induced group: The disease-induced group in the Experiment A was intraperitoneally injected with TAA at 100 mg/kg three times a week, the disease-induced group in the Experiment B was raised on a western diet (WD, 45% saturated fat, […], and water containing fructose and glucose). All CBM-N1 solvents in the Experiments A and B were administered using an oral tube at the same amount as that of CBM-N1 administration five times a week. In the accompanying drawings, TAA refers to a group in which a disease is induced by TAA, and \VD refers to a group in which a disease is induced by a western diet.
(3) Drug-administered group: In the Experiment A, the compounds of Formulas 1 to 5 (50 mg/kg/day, 5 times/week e administered with TAA (100 mg/kg, 3 times/week), and in the Experiment B, CBM-N1 to N5 (50 mg/kg/day, 5 times/week) were administered with a western diet. The mice treated by the above-described method for 16 weeks were instantly killed by excessively administering an anesthetic, and then the livers and blood were extracted. In the accompanying drawings, TAA+CBM-Ni, TAA+CBM-N2, TAA+CBM-N3, TAA+CBM-N4 and TAA+CBM-N5 refer to disease-induced groups to which the compounds of Formulas A1 to A5 were administered, respectively.
To histologically confirm the therapeutic effect of the compound of Formula A1 (CBM-N1) or the compound of Formula A9 (CBM-N9) in each mouse model, a paraffin tissue sample was prepared. Liver and lung tissues were fixed with a paraformaldehyde solution, and sliced to a thickness of 1 to 2 mm. The sectioned tissues were embedded in paraffin, sliced to a thickness of 4 μm to remove paraffin with xylene, and the xylene was removed with ethanol, followed by washing with tap water. The resulting tissues were subjected to hematoxylin and eosin staining (H&E staining) or immunohistochemistry.
(1) H&E staining: Nuclei were first stained (blue) with a Harris hematoxylin staining solution for 5 minutes, and counter-stained (pink) with an eosin solution.
(2) Immunohistochemistry for inflammation markers: Inflammation markers (CD82 and CD45) were stained with specific antibodies, and lymphoid cells were stained brown.
(3) Immunohistochemistry for fibrosis markers: Collagen was stained by Masson's trichrome staining, or reticulin fibers were stained by reticulin staining.
Aspartic acid aminotransferase (AST, GOT) and alanine aminotransferase (ALT, GPT), total bilirubin and albumin concentrations were measured using blood collected from liver disease mouse models. […]

Assay [6] deals with KCa2.3 channel. Briefly: KCa2.3 channel protein expression in hepatic stellate cells (western blotting). The conditions noted are these: exposure for 24 hours. The assay is classed as cell-based, human. The protocol:
as §1, §2, §5

The test system of the next assay is fibroblasts. Briefly: MTT cell proliferation in fibroblasts exposed to TGFβ or PDGF. Type of assay: cell-based. The protocol: as §1, §2
Cells were seeded in 96-well plates at 2×10^4 cells/well, and then exposed to TGFB, which promotes cell proliferation, for 24 hours. In addition, 0.1 mg of MTT was added to each well, followed by exposure for 4 hours at 37° C. Afterward, the culture medium was removed, the cells were lysed with dimethyl sulfoxide, and then absorbance was measured at 590 nm using the following devices.

For another assay, the system named is KCa3.1 channel. Put plainly: KCa3.1 channel expression in vascular endothelial cells. The conditions noted are these: PDGF treatment, 24 hours. The assay is classed as cell-based, human. The protocol: as §1, §2, §5
[7] abbreviates: blood, 50 mg/kg/day, 16 weeks, mean±S.E.M.
[8] abbreviates: liver tissue, versus disease-induced group.

KCa3.1 channel, sequence (O15554 whole entry): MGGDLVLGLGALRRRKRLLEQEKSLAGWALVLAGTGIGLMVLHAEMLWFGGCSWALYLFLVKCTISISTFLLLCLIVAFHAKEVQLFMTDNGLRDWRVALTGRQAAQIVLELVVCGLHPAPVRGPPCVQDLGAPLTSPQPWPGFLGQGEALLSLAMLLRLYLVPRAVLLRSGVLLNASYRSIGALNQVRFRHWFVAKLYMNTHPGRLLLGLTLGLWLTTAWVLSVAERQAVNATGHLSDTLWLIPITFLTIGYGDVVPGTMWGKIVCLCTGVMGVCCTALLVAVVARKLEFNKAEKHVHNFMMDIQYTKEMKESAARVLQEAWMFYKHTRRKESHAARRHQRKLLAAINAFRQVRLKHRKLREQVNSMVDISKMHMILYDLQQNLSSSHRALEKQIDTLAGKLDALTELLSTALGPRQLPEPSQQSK

As for `NC(=O)C[S+]([O-])C(c1ccccc1)c1ccccc1` (stereo not shown) [CBM-N1, 2-(benzhydrylsulfinyl)acetamide], the “expression of the KCa2.3 channel protein” value in the assay on KCa2.3 channel [1] (vascular endothelial cells with KCa2.3 expression increased with PDGF, treated for 24 hours) is listed as “significantly decreased”; in the assay with KCa2.3 channel [6], “reduced in hepatic stellate cells in a concentration-dependent manner”. For the same compound, the ALT levels in assay [2] (setting [7]) came to 87.2±24.7 units/L; in assay [5] (50 mg/kg/day, 16 weeks) it was 70.3±14.7 units/L. For the same compound, the AST blood levels in assay [2] (setting [7]) worked out at 71.4±19.8 units/L; in assay [5] (50 mg/kg/day, 16 weeks), 62.7±11.6 units/L. The “mRNA expression levels of inflammatory cytokines CCL2, IL6 and IL1α” value in assay [2] (setting [8]) is “decreased”. Moreover, in assay [3], the “expression levels of the fibrosis markers (α-SMA, collagen 1α, collagen 3α proteins)” value is “reduced”. The “expression level of the KCa2.3 channel protein” value in the assay on KCa2.3 channel [4] is “reduced”. Further, the “number of inflammation cells (H&E staining of liver tissue)” value in assay [5] (50 mg/kg/day, 16 weeks, versus disease-induced group) is “significantly decreased”. Further, the “mRNA expression levels of fibrosis markers (Col1α, Col3α, Col4α, α-SMA, TGFR2)” value in assay [5] (liver tissue) was “decreased”. Moreover, the “mRNA level of inflammation factors (inflammatory cytokines TNFα, CCL2, IL12, TGF, IL1α, IL6, MIP-2)” value (“mRNA level of inflammation factors” below) in assay [5] (setting [8]) is recorded as “decreased”. Besides, in the assay on fibroblasts (fibroblasts exposed to TGFβ (5 ng/ml) + compound for 24 hours), the cell proliferation result is “inhibited”.

In assay [5] (50 mg/kg/day, 16 weeks), `O=C(CSC(c1ccccc1)c1ccccc1)NCC1CCCO1` (stereo not shown) [CBM-N2, 2-(benzhydrylthio)-N-[(tetrahydrofuran-2-yl)methyl]acetamide] registered an ALT levels of 113.4±7.9 units/L and an AST blood levels of 83.6±14.8 units/L. In assay [5] (setting [8]), the “mRNA level of inflammation factors” value is reported as “decreased”. In the assay with KCa2.3 channel [6], the “expression of the KCa2.3 channel protein” value is “significantly reduced”.

`O=C(CSC(c1ccccc1)c1ccccc1)Nc1ccccc1` [CBM-N3, 2-(benzhydrylthio)-N-phenylacetamide]: in assay [5] (50 mg/kg/day, 16 weeks), the ALT levels turned out to be 103.0±6.9 units/L and the AST blood levels is on record as 73.4±7.4 units/L. Also, in assay [5] (setting [8]), the “mRNA level of inflammation factors” value was “decreased”.

On to `CNC(=O)C[S+]([O-])C(c1ccccc1)c1ccccc1` (stereo not shown) [CBM-N4, 2-(benzhydrylsulfinyl)-N-methylacetamide], for which, in assay [5] (50 mg/kg/day, 16 weeks), the ALT levels amounted to 114.1±8.8 units/L and the AST blood levels is given as 66.6±9.4 units/L. The “mRNA level of inflammation factors” value in assay [5] (setting [8]) was “decreased”.

For `O=C(C[S+]([O-])C(c1ccccc1)c1ccccc1)NCC1CCCO1` (stereo not shown) [CBM-N5, 2-(benzhydrylsulfinyl)-N-[(tetrahydrofuran-2-yl)methyl]acetamide], in assay [5] (50 mg/kg/day, 16 weeks), the ALT levels worked out at 106.4±12.8 units/L and the AST blood levels is on record as 67.7±10.2 units/L. The “mRNA level of inflammation factors” value in assay [5] (setting [8]) is recorded as “decreased”. For the same compound, the “expression of the KCa2.3 channel protein” value in the assay with KCa2.3 channel [6] is recorded as “significantly reduced”.

On to `NC(=O)C[S+]([O-])C(c1cccc(F)c1)c1cccc(F)c1` (stereo not shown) [CBM-N8, 2-[bis(3-fluorophenyl)methanesulfinyl]acetamide], for which the “expression of the KCa2.3 channel protein” value with KCa2.3 channel [6] was “significantly reduced”. Also, the “TGFβ or PDGF-induced cell proliferation” value in the assay on fibroblasts (fibroblasts, TGFβ (5 ng/ml) or PDGF (20 ng/ml), 24 hours) is listed as “significantly reduced”.

As for PDGF, the “expression of the mRNA and protein of the KCa2.3 channel” value with KCa2.3 channel [1] (vascular endothelial cells exposed to PDGF (20 ng/ml) or TGF (5 ng/ml) for 24 hours) is on record as “increased”. The “expression of the KCa3.1 channel” value in the assay on KCa3.1 channel is listed as “did not increase”.
